Test results published in article PMC12196358, “Indole Alkaloids and Phenolic Amides from the Rhizomes of Cimicifuga heracleifolia and Their In Vitro Soluble Epoxide Hydrolase (sEH) Inhibitory Activity” (Plants, 2025).
Entries after “also recorded” stand apart in the source; their conditions may differ.

Legend:
[1] = target: T1, soluble epoxide hydrolase (sEH) (Homo sapiens, UniProt P34913); test: sEH inhibitory activity, fluorescence-based assay with PHOME as substrate; format: biochemical; settings: recombinant sEH; for IC50: 37 °C, mean ± SD (n = 3); for sEH inhibitory activity (in words): compounds tested 0.1–100.0 μM
T1 construct: purchased Cayman Chemical Company 100116
T1 sequence (P34913 1-555): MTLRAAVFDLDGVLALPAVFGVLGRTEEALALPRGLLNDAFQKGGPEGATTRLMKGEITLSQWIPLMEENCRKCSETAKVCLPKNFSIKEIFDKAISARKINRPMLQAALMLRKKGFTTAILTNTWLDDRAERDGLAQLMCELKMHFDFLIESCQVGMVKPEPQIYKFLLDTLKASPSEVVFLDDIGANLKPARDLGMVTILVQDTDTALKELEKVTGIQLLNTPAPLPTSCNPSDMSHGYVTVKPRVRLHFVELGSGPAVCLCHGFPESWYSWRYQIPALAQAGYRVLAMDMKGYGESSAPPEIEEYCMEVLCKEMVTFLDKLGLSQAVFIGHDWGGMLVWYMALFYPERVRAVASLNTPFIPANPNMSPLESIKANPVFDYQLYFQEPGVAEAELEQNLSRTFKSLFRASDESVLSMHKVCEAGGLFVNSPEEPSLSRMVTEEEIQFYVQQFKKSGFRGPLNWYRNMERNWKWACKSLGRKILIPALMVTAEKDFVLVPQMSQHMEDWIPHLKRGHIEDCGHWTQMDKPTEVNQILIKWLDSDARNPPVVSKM
Experimental: The sEH inhibitory activities of compounds 1−10 were evaluated using a fluorescence-based assay with 3-phenyl-cyano(6-methoxy-2-naphthalenyl)methyl ester-2-oxiraneacetic acid (PHOME) as the substrate.
The epoxide hydrolase (sEH) enzyme is a recombinant enzyme with a concentration of 0.8 mg/mL, purchased from the Cayman Chemical Company in the United States (catalogue number: 100116, batch number: 069065) and stored at −80 °C to ensure its activity.
The enzymatic reactions were performed in a 96-well plate at 37 °C, where sEH hydrolyzed the fluorogenic substrate PHOME (MedChemExpress LLC., Princeton, NJ, USA) in the presence of each compound. The fluorescence signals were measured at an excitation wavelength of 330 nm and an emission wavelength of 465 nm. Wells containing the substrate alone (without the test compounds) served as negative controls. […] The inhibitory activity of each compound was evaluated based on the reduction in the formation of 6-methoxy-2-naphthaldehyde, a fluorescent product generated by PHOME hydrolysis.

[2] = target: T1, soluble epoxide hydrolase (sEH); test: sEH kinetic study (Lineweaver–Burk plots, varying inhibitor and PHOME concentrations); format: biochemical; settings: compound 1 to 5 μM, PHOME 1 to 20 μM
Experimental: Furthermore, the inhibition mechanisms of phenolic amides 6–8 and 10 were elucidated by kinetic analysis using various concentrations of compounds and the substrate, PHOME.
The inhibitory behaviour of compounds 6–8 and 10 against sEH was examined by analyzing kinetic changes at varying inhibitor concentrations. Each compound was tested at concentrations ranging from 1 to 5 μM, whereas the substrate PHOME was applied at concentrations ranging from 1 to 20 μM. The experimental data were fitted to the Michaelis–Menten equation to evaluate the kinetic parameters. The mode of inhibition was further determined using Lineweaver–Burk plots. Data were analyzed and plotted using GraphPad Prism 7 (GraphPad Software Inc., San Diego, CA, USA).

SMILES	IC50 [1] [µM]	sEH inhibitory activity (in words) [1]	mechanism (mode) of sEH inhibition [2]
COc1ccc2c(C(=O)C=C(C)C)c[nH]c2c1 [Compound 1, 6-methoxy-3-(3-methyl-1-oxo-2-butenyl) 1H indole]	> 100	lack of inhibitory activity	–
CC(C)=CC(=O)c1c[nH]c2ccccc12 [Compound 2, 3-(3-methyl-1-oxo-2-butenyl) 1H indole]	> 100	lack of inhibitory activity	–
CC(C)CC[C@]1(O)C(=O)N([C@@H]2O[C@H](CO)[C@@H](O)[C@H](O)[C@H]2O)c2ccccc21 [Compound 3, (3R)-1-(β-D-glucopyranosyl)-3-hydroxy-3-(3-methylbutyl)-2-oxindole]	> 100	–	–
CC(=O)NCCc1ccc(O)c(OC2OC(CO)C(O)C(O)C2O)c1 [Compound 4, N-acetyldopamine-3-O-β-D-allopyranoside]	> 100	did not show significant inhibitory activity	–
CC(=O)NCCc1ccc(O)c(O[C@@H]2O[C@H](CO)[C@@H](O)[C@H](O)[C@H]2O)c1 [Compound 5, N-acetyldopamine-3-O-β-D-glucopyranoside]	> 100	did not show significant inhibitory activity	–
COc1cc(/C=C/C(=O)NCCc2ccc(O)c(O)c2)ccc1O[C@@H]1O[C@H](CO)[C@H](O)[C@H](O)[C@H]1O [Compound 6, cimicifugamide A]	8.74 ± 0.42	most potent sEH inhibitory activity	non-competitive
COc1cc(CCNC(=O)/C=C/c2ccc(O[C@@H]3O[C@H](CO)[C@H](O)[C@H](O)[C@H]3O)c(OC)c2)ccc1O [Compound 7, cimicifugamide]	15.63 ± 0.1	moderate inhibitory activity	mixed-type competitive
COc1cc(/C=C/C(=O)NCCc2ccc(O)cc2)ccc1O[C@@H]1O[C@H](CO)[C@H](O)[C@H](O)[C@H]1O [Compound 8, demethoxycimicifugamide]	20.6 ± 0.89	moderate inhibitory activity	mixed-type competitive
COc1cc(C=CC(=O)NCCc2ccc(OC3OC(CO)C(O)C(O)C3O)c(OC)c2)ccc1O (centres unmarked) [Compound 9, cimicifugamide C]	> 100	did not show significant inhibitory activity; also recorded: no sEH inhibitory activity	–
COc1cc(/C=C/C(=O)NCCc2ccc(O)cc2)ccc1O [Compound 10, N-trans-feruloyl tyramine]	17.2 ± 0.31	moderate inhibitory activity	uncompetitive
